Test results published in US4786755A, “Diphenic acid monoamides” (Warner-Lambert Company, priority 1986, dated 1988).

Target: T1, leukotriene receptor (Cavia porcellus, UniProt Q2NNR5)
T1 construct: 20 mg original tissue wet weight of guinea pig lung membranes; tissue Kuiper Rabbit Farm, Gary, IN (animals); host or cells: guinea pig lung, crude membranes
T1 sequence (Q2NNR5 1-340): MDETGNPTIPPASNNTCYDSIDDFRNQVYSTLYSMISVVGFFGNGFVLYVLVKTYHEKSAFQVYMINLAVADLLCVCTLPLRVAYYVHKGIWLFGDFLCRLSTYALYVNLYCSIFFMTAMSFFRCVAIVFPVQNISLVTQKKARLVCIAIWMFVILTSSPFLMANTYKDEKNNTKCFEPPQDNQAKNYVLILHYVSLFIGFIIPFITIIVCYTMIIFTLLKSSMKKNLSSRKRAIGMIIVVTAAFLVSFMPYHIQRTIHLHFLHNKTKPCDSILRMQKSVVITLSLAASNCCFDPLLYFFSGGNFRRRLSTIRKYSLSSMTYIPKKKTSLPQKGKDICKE
Test: Binding of ^3 H-Leukotriene D4 to Guinea Pig Lung Membranes (RBL)
Conditions: ^3 H-LTD4, guinea pig lung membranes; read-out: IC50 RBL1
Protocol: Additionally, the activity, of the compounds having the Formula I of the present invention is determined by the well known leukotriene receptor binding assay that is described by R. F. Bruns, W. J. Thomsen and T. A. Pugsley in Life Sciences, 33, 645 (1983) or the Herxheimer in vivo antiallergy test described in H. Herxheimer, J. Physiol. (London), Vol. 177, p. 251 (1952).
Binding of ^3 H-Leukotriene D4 to Guinea Pig Lung Membranes (RBL)
[14,15-^3 H]leukotriene D4 (^3 H-LTD4) (25 Ci/mmol and 40 Ci/mmol) is purchased from New England Nuclear. Unlabeled LTC4 is a gift of Ono Pharmaceuticals (Japan). LTC4, LTD4, and LTE4 are purchased as methyl esters from Paesel GmbH (Frankfurt, W. Germany). Concentrations of the Paesel leukotrienes are calculated from their absorbance at 280 nm. Leukotriene esters are saponified overnight under N2 in 3.3% potassium carbonate at room temperature. Tritiated leukotrienes are stored as received from New England Nuclear at -20° C. Ono LTC4 (5 μg/ml is stored at -60° C. in phosphate buffer pH 6.8. Saponified Paesel leukotrienes are stored at -60° C. in 3.3% potassium carbonate (pH 9.0-9.5). Aliquots of leukotrienes are taken from stock solutions immediately after thawing, after which the stock solutions are immediately refrozen. 2-Amino-2-(hydroxymethyl)-1,3-propanediol (Tris) is Sigma pH 7.7 pre-set crystals, and dimethylsulfoxide is Aldrich Gold Label.
Preparation of crude lung membranes
Two pairs of lungs (1.3 g) from freshly sacrificed 300 g male guinea pigs (older animals gave substantially lower binding) from Kuiper Rabbit Farm, Gary, IN are disrupted with a Polytron PT 10 (setting 4) for 30 seconds in 20 ml ice-cold 50 mM Tris adjusted with HCl to pH 7.7 at 25° C. (Tris buffer), filtered through a single layer of gauze to remove connective tissue, and centrifuged at 50,000 xg for ten min. The pellet is resuspended by homogenization with a Polytron in 20 ml Tris buffer, centrifuged at 50,000 xg for ten min., resuspended, incubated at 37° C. for 30 minutes, and centrifuged again. The final pellet is resuspended in Tris buffer and either used fresh or stored at -70° C.
All incubations are in triplicate for 60 minutes at 25° C. in 12×75 mm polystyrene tubes containing 1 ml Tris buffer with 20 mg original tissue wet weight of guinea pig lung membranes, 0.2 nM ^3 H-LTD4 (6,000-11,000 cpm), 10 mM MgCl2, and 1% dimethylsulfoxide. Leukotrienes are diluted in Tris buffer. All other test compounds are dissolved at 10 mM in dimethylsulfoxide on the same day as the experiment, and diluted in dimethylsulfoxide to 100× the final incubation concentration. Control incubations receive an equal volume (10 μl) of dimethylsulfoxide; the resulting concentration of dimethylsulfoxide had no effect on binding. ^3 H-LTD4 is diluted to 2 nM in Tris buffer. The membrane suspension (20 mg/0.89 ml) contains sufficient MgCl2 to give 10 mM final concentration in the incubation. […] All additions are performed at 0° C. Immediately after the last addition, the incubation is initiated by agitating the rack of tubes on a vortex mixer and warming to 25° C. in a water bath. Tubes are vortexed at least once more during the incubation to ensure that the membranes remained suspended. Incubations are terminated after 60 minutes by filtering under reduced pressure through 25 mm Whatman GF/B filters followed by rapid washing three times with 4 ml of ice-cold Tris buffer. Filters are added to scintillation vials with 8 ml Formula 947 (New England Nuclear), left overnight, shaken, and the radioactivity counted in a scintillation counter (efficiency 40%). Nonspecific binding, defined as binding of ^3 H-LTD4 in the presence of 100 nM LTC4, is 300-500 cpm for all lots of ^3 H-LTD4. Binding to the filters in the absence of tissue is about 100 cpm, and is not affected by unlabeled LTC4. Specific binding, defined as total binding minus nonspecific binding, varied considerably from lot to lot of ^3 H-LTD4. […]

IC50 [µM] | SMILES
1 | O=C(O)c1ccccc1-c1ccccc1C(=O)Nc1cccc(CCCc2ccc(Cl)c(Cl)c2)c1 [Example 6, [1,1'-Biphenyl]-2-carboxylic acid, 2'-[[[3-[3-(3,4-dichlorophenyl)propyl]phenyl]amino]carbonyl]]
17.1 | O=C(CCc1ccc(NC(=O)c2ccccc2-c2ccccc2C(=O)O)cc1)c1ccc(Oc2ccccc2)cc1 [Example 54, [1,1'-Biphenyl]-2-carboxylic acid, 2'-[[[4-[3-oxo-3-(4-phenoxyphenyl)propyl]phenyl]amino]carbonyl]-]
13.2 | O=C(O)c1ccccc1-c1ccccc1C(=O)Nc1ccc(CCc2ccc(Oc3ccccc3)cc2)cc1 [Example 52]
5.7 | O=C(C=Cc1ccc(Cl)c(Cl)c1)c1ccc(NC(=O)c2ccccc2-c2ccccc2C(=O)O)cc1 [Example 46, [1,1'-Biphenyl]-2-carboxylic acid, 2'-[[[4-[1-oxo-3-(3,4-dichlorophenyl)-2-propenyl]phenyl]amino]-carbonyl]-]
27.1 | O=C(C=Cc1ccc(Br)cc1)c1ccc(NC(=O)c2ccccc2-c2ccccc2C(=O)O)cc1 [Example 47, [1,1'-Biphenyl]-2-carboxylic acid, 2'-[[[4-[1-oxo-3-(4-bromophenyl)-2-propenyl]phenyl]amino]carbonyl]-]
13.1 | O=C(O)c1ccccc1-c1ccccc1C(=O)Nc1ccc(CCCc2ccc(Oc3ccccc3)cc2)cc1 [Example 55, [1,1'-Biphenyl]-2-carboxylic acid, 2'-[[[4-[3-(4-phenoxyphenyl)propyl]phenyl]amino]carbonyl]-]
7.5 | O=C(CCc1ccc(Cl)cc1)c1ccc(NC(=O)c2ccccc2-c2ccccc2C(=O)O)cc1 [Example 49, [1,1'-Biphenyl]-2-carboxylic acid, 2'-[[[4-[1-oxo-3-(4-chlorophenyl)propyl]phenyl]amino]carbonyl]-]
2.4 | O=C(O)c1ccccc1-c1ccccc1C(=O)Nc1cccc(CCc2ccc(Oc3ccccc3)cc2)c1 [Example 53]
53.1 | CN(C)c1ccc(CCC(=O)c2ccc(NC(=O)c3ccccc3-c3ccccc3C(=O)O)cc2)cc1 [Example 48, [1,1'-Biphenyl]-2-carboxylic acid, 2'-[[[4-[1-oxo-3-(4-dimethylaminophenyl)propyl]phenyl]amino]carbonyl]-]
1.2 | O=C(O)c1ccccc1-c1ccccc1C(=O)Nc1ccc(OCCCCc2ccccc2)cc1 [Example 44, [1,1'-Biphenyl]-2-carboxylic acid, 2'-[[[4-(4-phenylbutyloxy)phenyl]amino]carbonyl]-]
11.2 | CCCCCCCCCCc1ccc(NC(=O)c2ccccc2-c2ccccc2C(=O)O)cc1 [Example 20]
3.8 | O=C(CCCCc1ccc(Cl)c(Cl)c1)c1ccc(NC(=O)c2ccccc2-c2ccccc2C(=O)O)cc1 [Example 56, [1,1'-Biphenyl]-2-carboxylic acid, 2'-[[[4-[5-(3,4-dichlorophenyl)-1-oxopentyl]phenyl]amino]-carbonyl]-]
44.9 | CC(CC(=O)CCc1ccc(NC(=O)c2ccccc2-c2ccccc2C(=O)O)cc1)c1ccccc1 (centres unmarked) [Example 57, [1,1'-Biphenyl]-2-carboxylic acid, 2'-[[[4-[5-phenyl-3-oxohexyl]phenyl]amino]carbonyl]-]
0.7 | O=C(O)c1ccccc1-c1ccccc1C(=O)Nc1cccc(CCCCc2ccc(Cl)c(Cl)c2)c1 [Example 50, [1,1'-Biphenyl]-2-carboxylic acid, 2'-[[[3-[4-(3,4-dichlorophenyl)butyl]phenyl]amino]carbonyl]-]
7.2 | O=C(CCc1ccc(Br)cc1)c1ccc(NC(=O)c2ccccc2-c2ccccc2C(=O)O)cc1 [Example 51, [1,1'-Biphenyl]-2-carboxylic acid, 2'-[[[4-[1-oxo-3-(4-bromophenyl)propyl]phenyl]amino]-carbonyl]-]
7.3 | O=C(O)c1ccccc1-c1ccccc1C(=O)Nc1ccc(CCCCCc2ccc(Cl)c(Cl)c2)cc1 [Example 58, [1,1'-Biphenyl]-2-carboxylic acid, 2'-[[[4-[5-(3,4-dichlorophenyl]pentyl]phenyl]amino]carbonyl]-]
5.4 | O=C(O)c1ccccc1-c1ccccc1C(=O)Nc1ccc(CCc2cc(C(F)(F)F)cc(C(F)(F)F)c2)cc1 [Example 13, [1,1'-Biphenyl]-2-carboxylic acid, 2'-[[[4-[2-[3,5-bis(trifluoromethyl)phenyl]ethyl]phenyl]amino]carbonyl]-]
